# Experimental data published in patent EP1439177B1, “Antiviral activity and resolution of 2-hydroxymethyl-5-(5-fluorocytosin-1-yl)-1,3-oxathiolane” (Emory University, priority 1991, dated 1992).
# Read-outs that look alike come from different tables or passages of the source.
# What was measured:
# [1] = test system: HIV-1 (strain LAV); experiment: microbe, parasite or virus in culture; format: cell-based; conditions: Human immunodeficiency virus 1, PBMC
# Excerpt: It is often desirable to screen a number of racemic mixtures of nucleosides as a preliminary step to determine which warrant further resolution into enantiomerically enriched components and further evaluation of antiviral activity. The ability of nucleosides to inhibit HIV can be measured by various experimental techniques. The technique used herein, and described in detail below, measures the inhibition of viral replication in phytohemagglutinin (PHA) stimulated human peripheral blood mononuclear (PBM) cells infected with HIV-1 (strain LAV). The amount of virus produced is determined by measuring the virus-coded reverse transcriptase enzyme. The amount of enzyme produced is proportional to the amount of virus produced.
# • A. Three-day-old phytohemagglutinin-stimulated PBM cells (10^6 cells/ml) from hepatitis B and HIV-1 seronegative healthy donors were infected with HIV-1 (strain LAV) at a concentration of about 100 times the 50% tissue culture infectious dose (TICD 50) per ml and cultured in the presence and absence of various concentrations of antiviral compounds. • B. Approximately one hour after infection, the medium, with the compound to be tested (2 times the final concentration in medium) or without compound, was added to the flasks (5 ml; final volume 10 ml). AZT was used as a positive control. • C. The cells were exposed to the virus (about 2 x 10^5 dpm/ml, as determined by reverse transcriptase assay) and then placed in a CO2 incubator. HIV-1 (strain LAV) was obtained from the Center for Disease Control, Atlanta, Georgia. The methods used for culturing the PBM cells, harvesting the virus and determining the reverse transcriptase activity were those described by McDougal et al. (J. Immun. Meth. 76, 171-183, 1985) and Spira et al. (J. Clin. Meth. 25, 97-99, 1987), except that fungizone was not included in the medium (see Schinazi, et al., Antimicrob. Agents Chemother. 32, 1784-1787 (1988); Id., 34:1061-1067 (1990)). • D. On day 6, the cells and supernatant were transferred to a 15 ml tube and centrifuged at about 900 g for 10 minutes. Five ml of supernatant were removed and the virus was concentrated by centrifugation at 40,000 rpm for 30 minutes (Beckman 70.1 Ti rotor). The solubilized virus pellet was processed for determination of the levels of reverse transcriptase. Results are expressed in dpm/ml of sampled supernatant. Virus from smaller volumes of supernatant (1 ml) can also be concentrated by centrifugation prior to solubilization and determination of reverse transcriptase levels.
# [2] = test system: FIV; experiment: microbe, parasite or virus in culture; conditions: Feline immunodeficiency virus, CRFK
# Method: (§1) Cell lines were obtained from either human donors, AIDS Research and Reference Reagent Program, NIH, Rockville, Maryland, ATCC, or the Red Cross. The CEM thymidine kinase deficient cells were prepared by sequential passage of CEM cells in the presence of 5-bromo-2'-deoxyuridine.
# [3] = test system: HIV-2; experiment: microbe, parasite or virus in culture; conditions: Human immunodeficiency virus 2, PBMC
# Method: as §1
# [4] = test system: SIV; experiment: microbe, parasite or virus in culture; conditions: Simian immunodeficiency virus
# Method: as §1
# [5] = test system: HIV-1; experiment: microbe, parasite or virus in culture
# Method: as §1
# [6] = Growth inhibition of mitogen-stimulated uninfected human PBM cells, trypan blue exclusion; format: cell-based; conditions: human, pbm cells
# [7] = Chronic oral treatment of rodents, toxicity; format: in vivo; conditions: oral doses of 85 mg/kg per day for at least two months
# [8] = test system: HIV; experiment: microbe, parasite or virus in culture; format: cell-based; conditions: Human immunodeficiency virus 1
# [9] = in vitro; conditions: human, cem cells
# [10] = in vivo; conditions: rhesus monkey, 33.3 mg/kg; for clearance: CLT, I.V. 33.3 mg/kg
# [11] = in vivo; conditions: rat, plasma, iv
# [12] = test system: peripheral human bone marrow cells; experiment: Toxicity to peripheral human bone marrow cells; format: cell-based; conditions: concentrations up to 50 µM
# [13] = in vitro; conditions: african green monkey, vero cells
# [14] = test system: other cell lines; experiment: Toxicity to other cell lines; format: cell-based; conditions: concentrations up to 200 µM
# [15] = test system: human PBM cells; experiment: Uptake of radiolabeled FTC into human PBM cells; format: in vitro ADME; conditions: 10 µM radiolabeled FTC, 2 to 24 hours; Figure 7
# Method: All studies were conducted in duplicate.
# [16] = biological target: HIV-RT (Human immunodeficiency virus type 1 group M subtype B, UniProt P04585); experiment: DNA chain termination by sequencing analysis; format: biochemical
# Method: (§2) Toxicity and pharmacokinetic studies confirm the usefulness of FTC as an antiviral agent for pharmaceutical administration. FTC and its enantiomers are nontoxic to peripheral human bone marrow cells at concentrations up to 50 µM and other cell lines at concentrations up to 200 µM. FTC-TP is a major intracellular metabolite in PBMC and HepG2 cells.
# [17] = biological target: HIV-1 reverse transcriptase (RT); experiment: Competitive inhibition of HIV-1 reverse transcriptase, poly(I)oligo(dC) template-primer; format: biochemical; conditions: read-out: K1 (affinity), competitive inhibition
# Method: as §2
# [18] = test system: human PBM cells; experiment: Egress of radiolabeled FTC from human PBM cells; format: in vitro ADME; conditions: 48 hours after the removal of the extracellular drug
# Method: This study measures the time needed for intracellular levels of triphosphates to decline. Studies were conducted in duplicate. Uninfected cells (2 x 10^6 ml) were suspended in the appropriate medium supplemented with serum (10 ml per timepoint) and incubated at 37°C in a 5% CO2 incubator. The radiolabeled FTC concentration was 10 µM. After pulsing the cells with the labeled compound for 24 hours, the cells were thoroughly washed and then replenished with fresh medium without the antiviral drugs (0 hr). At 0, 2, 4, 6, 12, 24, and 48 hours (second incubation time), the cells were removed, and immediately extracted with 60% cold methanol/water. The extract was obtained by centrifugation and removal of the cell pellet. The extracts were lyophilized and then stored at -70°C. Prior to analysis, the material was resuspended in 250 microliters of HPLC buffer and immediately analyzed. Quantitation of intracellular parent drug and metabolic derivatives was conducted by HPLC, using either a Micromeritics or Hewlett-Packard model 1090 PHLC system with an anion exchange Partisel 10 SAX column (Whatman, Inc.), at a flow rate of 1 ml/min, 1 kpsi pressure, with UV detection at 262 nm. The mobile phase consisted of deionized water (A), 2 mM NaH2PO4/16 mM NaOAc (pH = 6.6) (B), 15 mM NaH2PO4/120.2 mM NaOAc (pH = 6.6) (C), and 100 mM NaH2PO4/800 mM NaOAc (pH = 6.6) (D). […]
structure (smiles),measurement,setting,value
"Nc1nc(=O)n([C@@H]2CS[C@H](CO)O2)cc1F (racemic) [(±)-FTC, (±)-β-D.L-2-hydroxymethyl-5-(5-fluorocytosin-1-yl)-1,3-oxathiolane]",EC50,[1]; read-out: Antiviral EC50,10 nM
same,EC50,[1]; read-out: activity in PBM cells,~10 nM
same,EC50,[2],≤ 1000 nM
same,EC50,[3],3.8 nM
same,EC50,[4],4600 nM
same,EC50,[4]; C8166,< 8000 nM
same,EC50,"[5]; Human immunodeficiency virus 1, CEM (HTLV1118) NIH",90 nM
same,EC50,"[5]; Human immunodeficiency virus 1, CEM (LAV-1)",80 nM
same,EC50,"[5]; Human immunodeficiency virus 1, CEM-TK(-), CEM-TK^(-) (LAV-1)",26 nM
same,EC50,"[5]; Human immunodeficiency virus 1, MT2 (HTLV1118)",890 nM
same,EC50,"[5]; Human immunodeficiency virus 1, PBMC, PBMC (LAV-1)",27 nM
same,CC50 at 144 h,[6],> 100000 nM
same,toxicity of chronic treatment,[7],not toxic
same,IC50,[8],520 nM
same,CC50,[9],> 100000 nM
same,Vd,[10]; iv,2 L/kg
same,clearance,"[10]; iv, Mean of three monkeys",24.8 mL/min/kg
same,clearance,"[10]; iv, individual monkeys RUh, RMi, RJd",29 mL/min/kg
same,bioavailability,"[10]; po, F (bioavailability), P.O. 33.3 mg/kg, individual monkeys RUh, RMi, RJd",80%
same,clearance,[11]; 10 mg/kg,16.5 mL/min/kg
same,half-life,[11]; 10 mg/kg,45.4 min
same,MRT,[11]; 50 mg/kg,48 min
same,clearance,[11]; 50 mg/kg,14.6 mL/min/kg
same,half-life,[11]; 50 mg/kg,48.9 min
same,clearance,[11]; 100 mg/kg,13.8 mL/min/kg
same,half-life,[11]; 100 mg/kg,58.1 min
same,toxicity,[12],nontoxic
same,CC50,[13],> 100000 nM
same,toxicity,[14],nontoxic
same,uptake in human lymphocytes,[15],readily taken up
Nc1nc(=O)n([C@@H]2CS[C@H](COP(=O)(O)OP(=O)(O)OP(=O)(O)O)O2)cc1F (racemic) [FTC-TP],DNA chain terminator (C-stops),[16],potent DNA chain terminator
same,Ki,[17],200 nM
same,intracellular concentration,[18],1 to 5 µM
